Test results taken from US20150157588A1, “Pharmaceutical Composition Comprising Amino-Phenyl-Acetic Acid Octadec-(Z)-9-enyl Ester and Use Thereof for Treating Tumors” (Yeda Research and Development Co., Ltd., priority 2012, published 2015).

System: anti-CD3-activated T cells
Experiment: Microarray gene expression, T cells activated by anti-CD3 antibody
Assay type: cell-based, human
Conditions: for Fold change CCL7: 208075_s_at; for Fold change INDO: 210029_at; for Fold change RSAD2: 213797_at; for Fold change LYZ /// RFK: 213975_s_at; for Fold change CCL8: 214038_at; for Fold change CXCL5: 215101_s_at; for Fold change ANKRD12: 216563_at; for Fold change CCL2: 216598_s_at; for Fold change HIG2: 218507_at; for Fold change C1orf165: 219670_at; for Fold change IL1F9: 220322_at; for Fold change IL22: 221165_s_at; for Fold change PDE3B: 222330_at
Experimental: CD3 positive T cells were extracted from a healthy donor according to a standard protocol, and seeded in T cell medium including RPMI, 10% fetal calf serum, sodium pyruvate, L-Glutamine, and Penicillin/Streptomycin. Following an overnight incubation with medium, the cells were treated by incubating for 2 hours at 37° C. with amino-phenyl-acetic acid octadec-(Z)-9-enyl ester at a concentration of 10 micrograms/ml in a final volume of 10 ml in T-cell medium with or without 0.05% ethanol. After incubation, half the cells from each treatment were centrifuged and 2 ml of Tri-reagent (Sigma) were added to the pellet. The other half of the cells from each treatment were transferred to anti-CD3 antibody coated 24 well plates for an overnight incubation at 37° C. Coating plates with an anti-CD3 antibody was carried out by incubating with 2 micrograms/ml of OKT3 anti-CD3 antibody overnight at 4° C., washing three times with PBS and blocking with filtered 1% Bovine Serum Albumin for 1 hour. After activation with anti-CD3 antibody, cells were centrifuged and 2 ml of Tri-reagent were added to the pellet.
RNA was extracted from unstimulated cells and from cells activated with anti-CD3 according to standard protocols and used for hybridization with a Human Genome U133A 2.0 (Affymetrix, Catalogue number 900468), according to the manufacturer's instructions. The results of the hybridization were read by a GeneChip scanner 3000 (Affymetrix) and analyzed by QuantArray (GSI lumonics).
The effects of amino-phenyl-acetic acid octadec-(Z)-9-enyl ester in ethanol solution or in an aqueous vehicle (hereinafter termed “in PBS”) on gene expression in unstimulated T cells and T cells activated by anti-CD3 antibody were compared by microarray analysis.

[1] = anti-CD3-activated T cells, in ethanol solution vs in PBS
[2] = anti-CD3-activated T cells, in ethanol solution vs untreated
[3] = anti-CD3-activated T cells, in PBS vs untreated

With CCCCCCCC/C=C\CCCCCCCCOC(=O)C(N)c1ccccc1 (centres unmarked) [amino-phenyl-acetic acid octadec-(Z)-9-enyl ester] the “Fold change CCL7” value [1] was 2.01, the “Fold change CCL7” value [2] was 1.991 and the “Fold change NTRK1” value (208605_s_at, anti-CD3-activated T cells, in ethanol solution vs untreated) was 2.03. For the same compound, the “Fold change TFPI2” value (209277_at, anti-CD3-activated T cells, in ethanol solution vs in PBS) was 2.53, the “Fold change TFPI2” value (209277_at, anti-CD3-activated T cells, in ethanol solution vs untreated) was 3.32 and the “Fold change TFPI2” value (209278_s_at, anti-CD3-activated T cells, in ethanol solution vs in PBS) was 2.99. For the same compound, the “Fold change TFPI2” value (209278_s_at, anti-CD3-activated T cells, in ethanol solution vs untreated) was 3.87, the “Fold change CHI3L1” value (209395_at, anti-CD3-activated T cells, in ethanol solution vs in PBS) was 2.69 and the “Fold change CHI3L1” value (209395_at, anti-CD3-activated T cells, in ethanol solution vs untreated) was 3.40. For the same compound, the “Fold change CHI3L1” value (209396_s_at, anti-CD3-activated T cells, in ethanol solution vs in PBS) was 2.15, the “Fold change CHI3L1” value (209396_s_at, anti-CD3-activated T cells, in ethanol solution vs untreated) was 2.58 and the “Fold change INDO” value [1] was 2.08. For the same compound, the “Fold change INDO” value [2] was 2.47, the “Fold Change SPAG1” value (210117_at, anti-CD3-activated T cells, in ethanol solution vs in PBS) was −1.90 and the “Fold change IL1A” value (210118_s_at, anti-CD3-activated T cells, in ethanol solution vs untreated) was 2.02. The “Fold change PLA2G4A” value (210145_at, anti-CD3-activated T cells, in ethanol solution vs untreated) was 2.00, the “Fold Change LY9” value (210370_s_at, anti-CD3-activated T cells, in ethanol solution vs in PBS) was 2.25 and the “Fold change INHBA” value (210511_s_at, anti-CD3-activated T cells, in ethanol solution vs untreated) was 1.96. The “Fold change FPRL1” value (210772_at, anti-CD3-activated T cells, in ethanol solution vs untreated) was 2.00, the “Fold change PLAUR” value (210845_s_at, anti-CD3-activated T cells, in ethanol solution vs in PBS) was 2.01 and the “Fold change PLAUR” value (210845_s_at, anti-CD3-activated T cells, in ethanol solution vs untreated) was 2.02. The “Fold change LYST” value (210943_s_at, anti-CD3-activated T cells, in ethanol solution vs untreated) was 2.45, the “Fold change SERPINA1” value (211429_s_at, anti-CD3-activated T cells, in ethanol solution vs untreated) was 2.06 and the “Fold change IL8” value (211506_s_at, anti-CD3-activated T cells, in ethanol solution vs untreated) was 2.69. For the same compound, the “Fold change PLAUR” value (211924_s_at, anti-CD3-activated T cells, in ethanol solution vs untreated) was 1.91, the “Fold Change MCM4” value (212141_at, anti-CD3-activated T cells, in ethanol solution vs in PBS) was −1.98 and the “Fold Change MCM4” value (212142_at, anti-CD3-activated T cells, in ethanol solution vs in PBS) was −2.80. The “Fold change IL1RN” value (212657_s_at, anti-CD3-activated T cells, in ethanol solution vs untreated) was 1.98, the “Fold change IL1RN” value (212659_s_at, anti-CD3-activated T cells, in ethanol solution vs untreated) was 1.90 and the “Fold change RSAD2” value [1] was 3.11. The “Fold change RSAD2” value [2] was 2.28, the “Fold change LYZ /// RFK” value [1] was 2.02 and the “Fold change LYZ /// RFK” value [2] was 2.00. For the same compound, the “Fold change CCL8” value [1] was 2.33, the “Fold change CCL8” value [2] was 2.23 and the “Fold change CXCL5” value [3] was 1.995. The “Fold change CXCL5” value [2] was 2.31, the “Fold change SOD2” value (215223_s_at, anti-CD3-activated T cells, in ethanol solution vs untreated) was 1.95 and the “Fold change SNX9” value (215284_at, anti-CD3-activated T cells, in ethanol solution vs untreated) was 2.44. The “Fold change LYST” value (215415_s_at, anti-CD3-activated T cells, in ethanol solution vs untreated) was 2.09, the “Fold Change LY9” value (215967_s_at, anti-CD3-activated T cells, in ethanol solution vs in PBS) was 2.05 and the “Fold Change LY9” value (215967_s_at, anti-CD3-activated T cells, in ethanol solution vs untreated) was 2.2. The “Fold change IL1RN” value (216243_s_at, anti-CD3-activated T cells, in ethanol solution vs untreated) was 1.99, the “Fold change ANKRD12” value [3] was 1.94 and the “Fold change ANKRD12” value [2] was 2.48. The “Fold change probeset 216575_at” value [1] was 2.69, the “Fold change probeset 216575_at” value [2] was 2.31 and the “Fold change CCL2” value [1] was 5.27. The “Fold change CCL2” value [2] was 5.00, the “Fold change SLC7A11” value (217678_at, anti-CD3-activated T cells, in ethanol solution vs untreated) was 1.92 and the “Fold Change TNS3” value (217853_at, anti-CD3-activated T cells, in ethanol solution vs in PBS) was 2.00. The “Fold change FLJ20273” value (218035_s_at, anti-CD3-activated T cells, in ethanol solution vs untreated) was 2.17, the “Fold change HIG2” value [1] was −2.31 and the “Fold change HIG2” value [2] was −2.17. The “Fold Change DTL” value (218585_s_at, anti-CD3-activated T cells, in ethanol solution vs in PBS) was −1.93, the “Fold change ANKRD11” value (219437_s_at, anti-CD3-activated T cells, in ethanol solution vs untreated) was 2.84 and the “Fold change C1orf165” value [1] was −2.22. The “Fold change C1orf165” value [2] was −2.29, the “Fold change IL1F9” value [1] was 2.74 and the “Fold change IL1F9” value [2] was 3.10. The “Fold change MCM10” value (220651_s_at, anti-CD3-activated T cells, in ethanol solution vs untreated) was −2.05, the “Fold change IL22” value [1] was −3.03 and the “Fold change IL22” value [2] was −2.63. For the same compound, the “Fold Change BNIP3L” value (221478_at, anti-CD3-activated T cells, in ethanol solution vs in PBS) was −2.45, the “Fold Change BNIP3L” value (221478_at, anti-CD3-activated T cells, in ethanol solution vs untreated) was −2.28 and the “Fold Change BNIP3L” value (221479_s_at, anti-CD3-activated T cells, in ethanol solution vs in PBS) was −2.00. For the same compound, the “Fold Change GINS2” value (221521_s_at, anti-CD3-activated T cells, in ethanol solution vs in PBS) was −1.99, the “Fold change GRSF1” value (221917_s_at, anti-CD3-activated T cells, in PBS vs untreated) was 1.92 and the “Fold change PDE3B” value [1] was 1.99. The “Fold change PDE3B” value [2] was 1.97 and the down-regulated genes (activated T cells, in PBS vs untreated) was “no down-regulated genes”.
